According to US12728186B2, “Methods and kits for preparing pathogen-inactivated whole blood” (priority 2018, dated 2026):
Where “and” joins values, the source holds several entries; their conditions need not be identical. Equal entries are not always repeated.

Experiments:
Assay type in all cases: physicochemical
[1] = Residual amustaline by LCMS, Example 6 further example (direct donor collection into 2-container kit); details: donor blood collected into 2-container kit with CPDA-1; 22° C. 20 hours, second container 2-4 hours
Experimental: In another example, a 2-container kit comprising a treatment container and a filter set (e.g., described above) for introducing the amustaline/GSH (e.g., FIG. 8c) is used to collect from a donor 450 mL of whole blood into the first container that contains 63 mL of anticoagulant CPDA-1 (e.g., blood:anticoagulant ratio approximately 7:1), through the first inlet port. The collection line is then closed using a medical tubing clamp and the whole blood and anticoagulant solution are mixed. The pathogen inactivation compound amustaline and the quencher GSH are next added to the whole blood in the first container through the second port, to final concentrations of about 0.2 mM and 2.0 mM, respectively. The mixture of whole blood, PIC and quencher are incubated at 22° C. for 20 hours, followed by transfer of the mixture to the second container, clamping the tubing between the first and second containers, and incubating the mixture at 22° C. for a further 2-4 hours to provide a pathogen-inactivated whole blood unit.

[2] = Residual amustaline, Example 8 (2-container processing before component preparation); details: Units 2-7
Experimental: Additionally, a study was performed to evaluate plasma and red blood cells prepared from a pathogen-inactivated whole blood composition, either shortly after the whole blood PI treatment process, or after storing the pathogen-inactivated whole blood at 4° C. prior to preparing the plasma and red blood cell components. Donor whole blood units were pooled and split into seven units (e.g., to standardize across units), and subjected to treatment conditions as follows. Unit 1 was the control and treated only with saline, while units 2-7 were treated with amustaline and GSH, at concentrations of about 0.2 mM and 2.0 mM, respectively. Following addition of the amustaline and GSH, or the saline, in the first container (bag), the units were incubated at 22° C. for 22 hours, and then transferred to the second container (bag). Sampling was done at the time of transfer, and also at 24 hours and 26 hours (2 or 4 hours post-transfer, also incubated at 22° C.), for analysis of residual amustaline, hemolysis and/or fibrinogen and Factor VIII levels. […] Additionally, at Days 2, 5 and 7, samples were removed from the stored pathogen-inactivated whole blood, centrifuged to obtain plasma and red blood cells, and similarly analyzed. […]

[3] = Residual unreacted amustaline by LCMS, Example 4 (1-, 2- or 3-container kits); details: for Residual amustaline levels in pathogen-inactivated whole blood, 20 hr / Residual amustaline levels in pathogen-inactivated whole blood, 22 hr / Residual amustaline levels in pathogen-inactivated whole blood, 24 hr / Residual amustaline levels in pathogen-inactivated whole blood, 26 hr: 22° C.
Experimental: Another study was performed to evaluate the preparation of pathogen-inactivated whole blood using amustaline and GSH, in 1-container, 2-container or 3-container kits of the present disclosure. Six ABO-matched whole blood units in anticoagulant were pooled and split into seven units of ~450 mL. The seven whole blood units were subjected to pathogen inactivation under one of three conditions—with no transfer step between containers, one transfer step between two containers, or two transfer steps between three containers (Table 5). Amustaline and GSH were added to the whole blood units by sterile docking of a filter set as previously described to the tubing of an input port of the first container that contained the whole blood. Unit 1 was treated with amustaline and GSH at 0.2 mM and 2.0 mM final concentrations, respectively, in the first container and incubated at 22° C., with samples taken at 20, 22, 24 and 26 hours, with no further container transfers. For units 2-4, amustaline and GSH were added to the whole blood (0.2 mM and 2.0 mM final concentrations, respectively) in the first container and incubated at 22° C. for 20 hours. A sample was taken at 20 hours, along with transfer to a second bag and further incubation at 22° C., with additional sampling at 2 hour intervals (22, 24 and 26 hr). For units 5-7, amustaline and GSH were added to the whole blood (0.2 mM and 2.0 mM final concentrations, respectively) in the first container and the mixture transferred to a second container, followed by incubation at 22° C. for 20 hours. A sample was taken at 20 hours, along with transfer to a third bag and further incubation at 22° C., with additional sampling at 2 hour intervals (22, 24 and 26 hr).
Samples were analyzed by LCMS to determine the level of residual, unreacted amustaline as previously described.

[4] = Unit 1, no transfer (1 bag kit)
[5] = Units 2-4, 1x transfer (2 bag kit), to second bag at 20 hr
[6] = Units 5-7, 2x transfer (3 bag kit), second container after addition, third bag at 20 hr

Structure (SMILES): O=C(CCNc1c2ccccc2nc2ccccc12)OCCN(CCCl)CCCl [amustaline]
- Residual amustaline levels in the pathogen-inactivated whole blood preparation [1]: below 1 nm
- Residual amustaline levels in pathogen-inactivated whole blood, 22 hr ([2]; 22 hr (time of transfer), first container 22° C. for 22 hours, then second container): 1.46 nM and 1.39 nM and 1.35 nM and 1.96 nM and 1.84 nM and 1.55 nM
- Residual amustaline levels in pathogen-inactivated whole blood, 26 hr ([2]; 26 hr (4 hours post-transfer, 22° C.), second container from 22 hr): BLOQ (BLOQ = Below Limit of Quantitation (e.g., < 0.75 nM))
- level of amustaline after PI processing, 2-container and 3-container kits ([3]; 2-container and 3-container kits, after transfer at 20 hr): below the limit of quantitation
- Residual amustaline levels in pathogen-inactivated whole blood, 20 hr ([3]; 20 hr (at transfer to third bag), Units 5-7, 2x transfer (3 bag kit), second container after addition, third bag at 20 hr): 1.47 nM and 1.46 nM and 1.53 nM
- Residual amustaline levels in pathogen-inactivated whole blood, 20 hr ([3]; 20 hr (at transfer), Units 2-4, 1x transfer (2 bag kit), to second bag at 20 hr): 1.53 nM and 1.65 nM and 1.66 nM
- Residual amustaline levels in pathogen-inactivated whole blood, 20 hr ([3]; 20 hr, Unit 1, no transfer (1 bag kit)): 1.47 nM
- Residual amustaline levels in pathogen-inactivated whole blood, 22 hr [3, 4]: 1.54 nM
- Residual amustaline levels in pathogen-inactivated whole blood, 22 hr [3, 5]: BLOQ (BLOQ = Below Limit of Quantitation (e.g., < 0.75 nM))
- Residual amustaline levels in pathogen-inactivated whole blood, 22 hr [3, 6]: BLOQ (BLOQ = Below Limit of Quantitation (e.g., < 0.75 nM))
- Residual amustaline levels in pathogen-inactivated whole blood, 24 hr [3, 4]: 1.39 nM
- Residual amustaline levels in pathogen-inactivated whole blood, 24 hr [3, 5]: BLOQ (BLOQ = Below Limit of Quantitation (e.g., < 0.75 nM))
- Residual amustaline levels in pathogen-inactivated whole blood, 24 hr [3, 6]: BLOQ (BLOQ = Below Limit of Quantitation (e.g., < 0.75 nM))
- Residual amustaline levels in pathogen-inactivated whole blood, 26 hr [3, 4]: 1.32 nM
- Residual amustaline levels in pathogen-inactivated whole blood, 26 hr [3, 5]: BLOQ (BLOQ = Below Limit of Quantitation (e.g., < 0.75 nM))
- Residual amustaline levels in pathogen-inactivated whole blood, 26 hr [3, 6]: BLOQ (BLOQ = Below Limit of Quantitation (e.g., < 0.75 nM))
